Data set [1] can be described thus: octanol/water partition coefficient (log P). In kind it is physicochemical. The text has this:
Modification of the substituents present on the bis(thiosemicarbazone) ligand can be used to control, for example, the lipophilicity of the ligand and resulting complex. For example, lipophilicity can be increased with increasing alkyl substitution of the conjugated ligand backbone, particularly in the groups R2, R2′, L1, L1′, R1 and R1′.

Data set [2] in a line: Cyclic voltammetry in DMF with a glassy carbon electrode. The conditions noted are these: vs SCE. In kind it is physicochemical. The text has this:
Under the same conditions the hypoxia selective radiopharmaceutical [Cu(ATSM)] undergoes a reversible reduction at E1/2=−0.59 V.

Like-named read-outs stand apart in the source and are kept apart here.

As a reminder, the log P is the decadic logarithm of the partition coefficient of the neutral form, usually between octanol and water. A low value points to lower lipophilicity. Consider `CC(C=NNC(=S)N(C)C)=NNC(=S)N(C)C.[Cu]` [Cu[PTSM2]], for which the “log P” value in data set [1] is on record as 3.18.
Turning to `CC1=[N+]2N=C(N)[S][Cu-2]23[S]C(N)=N[N+]3=C1` (stereo not drawn) [Cu[PTS]], the “log P” value in data set [1] (P is the octanol/water partition coefficient) amounted to 0.76.
`CN=C([S-])N/N=C(C)/C(C)=N/NC([S-])=NC.[Cu+2]` [[Cu(ATSM)], Cu[ATSM], reference compound]: the “E1/2 of reduction (Cu(II) to Cu(I))” value in data set [2] is listed as −0.59 V.

The values above are taken from patent US8299285B2, “Compounds for imaging and therapy” (Isis Innovation Limited, priority 2005, dated 2012).
